This note sets out measurements from patent US20080003438A1, “Heterocyclic siloxanes for use in biocidal coatings and materials” (Auburn University, priority 2002, published 2008).

The test system of data set [1] is Proteus mirabilis bacteria. Nature of the data set: Odor control: ammonia in head space above inoculated wood pulp pads. The format is cell-based. The following applies: coated, chlorinated wood pulp pads, 37° C., six hours. How it is done:
3-triethoxysilylpropyl-5,5-dimethylhydantoin, prepared as described in Example 1, was used to treat non-woven pads consisting of 1 gram of a wood pulp matrix such as is used in diapers and incontinence products. A 5% solution prepared in a distilled water and ethanol 1:1 mixture was applied to pads of the wood pulp fibers, and they were then left to soak for 5 minutes. Excess solution was vacuum suctioned from the pads, which were then dried in an oven at 90° C. for two hours. Untreated pads were also subjected to exposure to water and ethanol as controls, and were similarly dried.
Dried coated test samples and uncoated control pads were then treated by exposure to 10% sodium hypochlorite solution for 15 minutes, after which they were rinsed exhaustively with distilled water, and then vacuum dried to remove any unbound, free chlorine. Additional control pads consisted of wood pulp coated with 3-triethoxysilylpropyl-5,5-dimethylhydantoin but not exposed to the hypochlorite bleach charge. […]
All test and control pads were then exposed to an inoculum designed to generate ammonia odor as a result of bacterial action on urine, simulating events in an infant or adult human diaper. […] At the end of this period the samples were removed from the incubator, and the amount of ammonia gas in the head space above each pad was measured as an indicator of the degree of odor generated in the urine. […]

In data set [2] the test system is Candida albicans (ATCC # 102301). In words: Anti-yeast activity of halogen charged coated surfaces. The class given is cell-based. How it is done:
Soft and hard surfaces were treated by exposure to solutions of 3-triethoxysilylpropyl-5,5-dimethylhydantoin prepared as described in Example 1. Challenge inocula for determination of activity directed against yeasts consisted of suspensions of Candida albicans (ATCC # 102301) harvested from PDA plates. Procedures for preparation of halogen charged surfaces, plates, and the exposure of test articles were as described in Example 11. Recovery of viable Candida was accomplished by the plate dilution method on PDA.

The nature of data set [3]: Stability test during dry storage of coated cotton samples. The format is physicochemical. How it is done: A stability test during dry storage was also conducted on cotton samples coated with 3-triethoxysilylpropyl-5,5-dimethylhydantoin. One half of the samples were coated in a bath containing 8% of the 3-triethoxysilylpropyl-5,5-dimethylhydantoin in 50% ethanol in water solution. The other half were treated in the same manner except that KSCN was added to the treatment bath as described above. The chlorination conditions and analytical method of measuring chlorine loadings were the same as discussed above. The samples were stored in plastic bags at ambient temperature; the bags were not air-tight. The average chlorine loading for the samples treated in the presence of KSCN declined from 0.776% to 0.680% over a period of 50 days. For the samples not treated in the presence of KSCN, the decline was from 0.620% to 0.540% over the same 50 day period. It can be concluded that the coated cotton samples were fairly stable to loss of chlorine in dry storage.

Data set [4] in a line: Chlorine loading of coated, chlorinated surfaces by iodometric/thiosulfate titration. The format is physicochemical. The following applies: for average chlorine loading on the swatches: 10% CLOROX 30 min; for chlorine content: chlorinated in household washing machine; for chlorine bound to hard surface: 10% CLOROX. How it is done: Swatches of Style 400 Bleached 100% Cotton Print Cloth (Testfabrics, Inc.) were treated with 3-triethoxysilylpropyl-5,5-dimethylhydantoin, prepared as described in Example 1, in the following manner. A treatment bath was prepared containing 5.0 g of 3-triethoxysilylpropyl-5,5-dimethylhydantoin, 3.0 g of potassium thiocyanate, 50 mL of ethanol, and 50 mL of water. After 1 hour of equilibration of the bath mixture, the cotton swatches were soaked in the bath for 10 min. After partially drying in air at ambient temperature, the swatches were cured for 1 hour at 95° C. The swatches were then soaked in a 0.5% liquid detergent solution for 15 min, rinsed with tap water, and allowed to dry in air at ambient temperature. […] The swatches were stored in a vacuum desiccator until use.
The siloxane polymer described above was coated onto 100% cotton fabric. This was accomplished by soaking swatches of the material for about 2 minutes at ambient temperature in a bath containing 5 g of the polysiloxane, 70 mL of ethanol, and 40 mL of water. The swatches were cured at 130° C. in air for 20 minutes, then soaked in 1.5% liquid detergent for 15 minutes at ambient temperature, and then rinsed thoroughly with water. […] An iodometric/thiosulfate titration indicated a chlorine loading on the cotton material of about 0.42%.
Finally, a wash test was performed on swatches of cotton containing the monomer 3-triethoxysilylpropyl-5,5-dimethylhydantoin coating and the polysiloxane coating, each chlorinated and unchlorinated, for comparison purposes. Two treatment baths were prepared, one containing an 8% solution of 3-triethoxysilylpropyl-5,5-dimethylhydantoin in a 50% solution of ethanol in water, the other containing an 8% solution of siloxane polymer prepared as described above in a 66.7% solution of ethanol in water. Identical cotton swatches were soaked in the two baths for 2.5 minutes at ambient temperature, cured in air at 130° C. for 20 minutes, soaked in 1.5% liquid detergent at ambient temperature for 15 minutes, rinsed thoroughly with water, and dried in air at 50° C. for 30 minutes. Then one-half of the swatches of each type were chlorinated by soaking them in 5% CLOROX at ambient temperature for 45 minutes. These chlorinated samples were rinsed thoroughly with water and dried in air at 50° C. for 30 minutes to remove all occluded free chlorine. Iodometric/thiosulfate titrations were performed on representative samples to determine initial chlorine loadings. The average chlorine loading for the silane monomer-coated samples was 0.61%; for the siloxane polymer-coated samples, the average chlorine loading was 0.40%. Then all types of coated swatches were subjected to laundry washing cycles using AATCC Test Method 61 (Test 2A Procedure). Samples were evaluated after 5, 10, and 50 washing cycles for retention of the coatings. Those samples not chlorinated before washing were chlorinated by the procedure described above in order to assess how much chlorine could be loaded after variable numbers of washing cycles. Those chlorinated before washing were divided into two groups with half being assessed for chlorine loading without rechlorination, the other half being rechlorinated and then assessed for chlorine loading. Three observations are clearly evident from the data in Table 3. First, both the silane and the siloxane coatings are partially lost upon successive washings. Second, prechlorination reduces the rate of loss, probably due to increasing the hydrophobicity of the surface, thus reducing the rate of hydrolysis loss of the siloxane coatings. Third, the siloxane coating, which is not chlorinated to as high a level as the silane one upon initial chlorination, is lost at a slower rate than is the silane coating. For all of the coatings, at least partial biocidal efficacy would be regenerated upon rechlorination after 50 washing cycles. […]

Molecules are shown by their SMILES. Bounds are passed on as bounds.

Regarding `CCO[Si](CCCN1C(=O)NC(C)(C)C1=O)(OCC)OCC` [3-triethoxysilylpropyl-5,5-dimethylhydantoin], the “odor detected by the human nose” value in data set [1] is listed as “no detectable odor whatsoever”. The “ammonia in the head space above the pads” value in data set [1] (urine + urea + P. mirabilis, lower limit of detection 0.25 ppm) is on record as under 0.25 ppm. Moreover, the “reduction in viable yeasts” value in data set [2] (cotton surfaces, two hours of contact) is on record as 5 logs; in data set [2] (hard surfaces, 6 hours of contact), “up to 4 logs”; in data set [2] (polyester, 24 hours), 4 logs. Also, the average chlorine loading in data set [3] (cotton not treated in presence of KSCN, after 50 days in plastic bags at ambient temperature) came out at 0.540%; in data set [3] (cotton not treated in presence of KSCN, start of dry storage) it was 0.620%; in data set [3] (cotton treated in presence of KSCN, after 50 days in plastic bags at ambient temperature), 0.680%; in data set [3] (cotton treated in presence of KSCN, start of dry storage), 0.776%. In addition, the “chlorine on hard surface” value in data set [4] (PVC (Example 12)) is 4.1 μg per cm^2; in data set [4] (marble tiles (Example 12)) it was 6.9 μg per cm^2. In data set [4] (cotton, 8% treatment bath, cured 130° C. 20 min, 5% CLOROX 45 minutes), the “average initial chlorine loading before washing” value was 0.61%. Besides, the “average chlorine loading on the swatches” value in data set [4] (cotton, KSCN in treatment bath) turned out to be 0.61±0.14%; in data set [4] (cotton, without KSCN), 0.49±0.07%. Also, the chlorine content result in data set [4] (cotton) is given as “approximately 4000 ppm Cl^+”; in data set [4] (sponge slabs), 1000-2000 ppm. The “chlorine bound to hard surface” value stood at 6.9 μg Cl^+ per square cm in data set [4] (marble tile) and 3.3 μg Cl^+ per square cm in data set [4] (porcelain tile). The entries for the “chlorine concentration on soft surface” value in data set [4] (rayon fabrics (Example 12)) and in data set [4] (synthetic fibers (Example 12)) were 4000 ppm and “approximately 800 ppm”, respectively.
